Where “and” joins values, the source holds several entries; their conditions need not be identical. Equal entries are not always repeated.
Legend:
CDK6/cyclinD3(h) = CDK6/cyclinD3(h) (Homo sapiens, UniProt Q00534); test: Eurofins kinase assay
[1] = 2-week repeated oral DRF toxicity study; format: in vivo
Pharmacokinetic study = format: in vivo, C57BL/6 mice
Experimental: Blood samples were collected at each time point for analysis. Plasma samples were analyzed by liquid chromatography–mass spectrometry (LC-MS/MS).

TIE2 = target: T1, TIE2 (Mus musculus, UniProt Q02858); test: Western blot in BMDMs, ligand-dependent phosphorylation; format: cell-based; conditions: 2 h treatment, angiopoietin 2 100 ng/mL 15 min
T1 construct: endogenous in cells; host or cells: mouse bone-marrow-derived macrophages (BMDMs)
Experimental: (§1) HCT116, LS513, SW620, HUVECs, and HT29 cell lines were purchased from the Korean Cell Line Bank (Seoul, Korea). All cell lines were maintained in RPMI or DMEM (Gibco Inc., Billings, MT, USA) supplemented with 10% FBS (Gibco, USA) and penicillin–streptomycin in an incubator at 37 °C and 5% CO2. Bone marrow cells were isolated from the femur and tibia of mice using a single-pass bone marrow aspiration. Cells were cultured in RPMI medium supplemented with 10% FBS and 100 ng/mL CSF1 (Peprotech, Rocky Hill, NJ, USA) for 7 days to differentiate into bone-marrow-derived macrophages (BMDMs).
(§2) In 6-well plates, LS513 cells were seeded and allowed to adhere and proliferate for 24 h. […] After treatment, the cells were harvested using RIPA lysis buffer to extract cellular proteins. The cell lysates were subjected to Western blot analysis. […] The cell lysates were analyzed by Western blot using specific antibodies, such as p-CSF1R (Cell Signaling, #14591S), CSF1R (Cell Signaling, #67455S), p-TIE2 (Cell Signaling, #4221S), and TIE2 (Santa Cruz Biotechnology, Dallas, TX, USA, #sc-293414), to detect and analyze the respective proteins.

CSF1R = target: T2, CSF1R (Mus musculus, UniProt P09581); test: as above; format: cell-based; conditions: 2 h treatment, CSF1 100 ng/mL 15 min
T2 construct: endogenous in cells; host or cells: mouse bone-marrow-derived macrophages (BMDMs)
Experimental: as §1, §2

PKCβII(h) = PKCβII(h) (Homo sapiens, UniProt P05771); test: Eurofins kinase assay
BRAF = BRAF (Homo sapiens, UniProt P15056); test: Eurofins kinase assay
HT29 (BRAF V600E) = test: Cell proliferation assay (CellTiter-Glo); conditions: Homo sapiens, HT-29, 72 h
Experimental: To assess cell viability, the CellTiter-Glo Luminescent Cell Viability Assay Reagent (Promega, Fitchburg, WI, USA) was added to each well. The assay measured ATP levels as an indicator of cell viability. All data points were normalized to the control samples treated with dimethyl sulfoxide when determining IC50 values. Statistical calculations and data analysis, including IC50 determination, were performed using GraphPad Prism software.

IGF-1R(h) = IGF-1R(h) (Homo sapiens, UniProt P08069); test: Eurofins kinase assay
[2] = Single oral dose toxicity study; format: in vivo, Sprague Dawley rats; conditions: 500 mg/kg oral
CDK5/p35(h) = CDK5/p35(h) (Homo sapiens, UniProt Q00535); test: Eurofins kinase assay
NEK2(h) = NEK2(h) (Homo sapiens, UniProt P51955); test: Eurofins kinase assay
AKT phosphorylation = test: Western blot in LS513 cells; format: cell-based, human; conditions: LS513, 1 h treatment
Experimental: (§3) In 6-well plates, LS513 cells were seeded and allowed to adhere and proliferate for 24 h. […] After treatment, the cells were harvested using RIPA lysis buffer to extract cellular proteins. The cell lysates were subjected to Western blot analysis. Antibodies specific to phosphorylated epidermal growth factor receptor (p-EGFR, Cell Signaling Technology, Danvers, MA, USA, #2234S), epidermal growth factor receptor (EGFR, Cell Signaling Technology #2232S), phosphorylated vascular endothelial growth factor receptor (p-VEGFR, Cell Signaling Technology #3770S), vascular endothelial growth factor receptor (VEGFR, Cell Signaling Technology #2479S), phosphorylated Akt (p-Akt, Cell Signaling Technology #9271S), Akt (Cell Signaling Technology #9272S), phosphorylated MEK (p-MEK, Cell Signaling Technology #9121S), MEK (Cell Signaling Technology #9122), phosphorylated ERK (p-ERK, Cell Signaling Technology #9101S), and ERK (Cell Signaling Technology #9102S) were used for protein detection. The antibodies were diluted 1:1000 for the specific target proteins. In addition, a β-actin antibody (Sigma-Aldrich, Seoul, Republic of Korea, #A5441) diluted 1:5000 was used as a loading control. Bone-marrow-derived macrophages (BMDMs) were plated and allowed to adhere and proliferate for 24 h. […] Subsequently, the cells were stimulated with recombinant human angiopoietin-2 (R&D Systems, Minneapolis, MN, USA, #623-AN) and CSF1 (Peprotech, #300-25) for 15 min. After stimulation, protein samples were obtained from the cells. The cell lysates were analyzed by Western blot using specific antibodies, such as p-CSF1R (Cell Signaling, #14591S), CSF1R (Cell Signaling, #67455S), p-TIE2 (Cell Signaling, #4221S), and TIE2 (Santa Cruz Biotechnology, Dallas, TX, USA, #sc-293414), to detect and analyze the respective proteins.

[3] = test system: MEK and ERK phosphorylation; test: Western blot in LS513 cells; format: cell-based, human
Experimental: as §3

[4] = male, C57BL/6, mouse, plasma, iv 5 mg/kg
[5] = male, C57BL/6, mouse, plasma, po 40 mg/kg

Sequence of CDK6/cyclinD3(h) (Q00534 whole entry): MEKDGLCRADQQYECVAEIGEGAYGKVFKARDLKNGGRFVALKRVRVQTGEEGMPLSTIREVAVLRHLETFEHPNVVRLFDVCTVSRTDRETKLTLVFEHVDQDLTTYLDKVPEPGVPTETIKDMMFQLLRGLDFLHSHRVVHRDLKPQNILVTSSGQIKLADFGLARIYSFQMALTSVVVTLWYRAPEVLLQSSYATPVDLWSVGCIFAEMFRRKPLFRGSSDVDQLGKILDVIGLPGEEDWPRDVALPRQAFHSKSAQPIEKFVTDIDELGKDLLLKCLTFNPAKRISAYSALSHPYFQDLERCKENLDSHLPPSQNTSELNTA
Sequence of CDK6/cyclinD3(h) (P30281 whole entry partner): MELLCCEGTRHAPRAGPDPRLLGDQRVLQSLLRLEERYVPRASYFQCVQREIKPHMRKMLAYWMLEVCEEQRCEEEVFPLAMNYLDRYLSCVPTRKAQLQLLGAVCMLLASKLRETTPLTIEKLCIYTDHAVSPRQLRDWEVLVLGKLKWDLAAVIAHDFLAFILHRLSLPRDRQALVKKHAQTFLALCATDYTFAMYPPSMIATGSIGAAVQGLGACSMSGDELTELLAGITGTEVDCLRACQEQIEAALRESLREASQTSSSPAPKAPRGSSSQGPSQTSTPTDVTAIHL
Sequence of PKCβII(h) (P05771 1-673 isoform P05771-2): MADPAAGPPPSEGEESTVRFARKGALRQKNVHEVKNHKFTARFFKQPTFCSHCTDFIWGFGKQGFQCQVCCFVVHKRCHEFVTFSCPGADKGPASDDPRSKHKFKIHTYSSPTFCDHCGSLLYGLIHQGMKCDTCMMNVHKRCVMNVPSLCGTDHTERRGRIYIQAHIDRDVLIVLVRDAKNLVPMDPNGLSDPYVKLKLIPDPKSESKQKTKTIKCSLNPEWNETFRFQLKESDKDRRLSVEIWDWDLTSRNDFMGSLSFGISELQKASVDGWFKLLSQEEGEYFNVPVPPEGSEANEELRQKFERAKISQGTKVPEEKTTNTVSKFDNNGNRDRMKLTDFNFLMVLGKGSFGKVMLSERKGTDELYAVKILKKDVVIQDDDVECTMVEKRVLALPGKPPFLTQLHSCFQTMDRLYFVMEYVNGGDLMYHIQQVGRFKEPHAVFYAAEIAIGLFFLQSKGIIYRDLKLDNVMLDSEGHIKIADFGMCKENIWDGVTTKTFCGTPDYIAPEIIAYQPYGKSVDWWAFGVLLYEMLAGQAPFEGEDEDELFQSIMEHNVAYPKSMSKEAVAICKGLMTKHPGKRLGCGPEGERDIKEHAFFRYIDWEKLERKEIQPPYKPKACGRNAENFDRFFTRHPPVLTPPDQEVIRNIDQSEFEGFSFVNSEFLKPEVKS
Sequence of IGF-1R(h) (P08069 31-1367): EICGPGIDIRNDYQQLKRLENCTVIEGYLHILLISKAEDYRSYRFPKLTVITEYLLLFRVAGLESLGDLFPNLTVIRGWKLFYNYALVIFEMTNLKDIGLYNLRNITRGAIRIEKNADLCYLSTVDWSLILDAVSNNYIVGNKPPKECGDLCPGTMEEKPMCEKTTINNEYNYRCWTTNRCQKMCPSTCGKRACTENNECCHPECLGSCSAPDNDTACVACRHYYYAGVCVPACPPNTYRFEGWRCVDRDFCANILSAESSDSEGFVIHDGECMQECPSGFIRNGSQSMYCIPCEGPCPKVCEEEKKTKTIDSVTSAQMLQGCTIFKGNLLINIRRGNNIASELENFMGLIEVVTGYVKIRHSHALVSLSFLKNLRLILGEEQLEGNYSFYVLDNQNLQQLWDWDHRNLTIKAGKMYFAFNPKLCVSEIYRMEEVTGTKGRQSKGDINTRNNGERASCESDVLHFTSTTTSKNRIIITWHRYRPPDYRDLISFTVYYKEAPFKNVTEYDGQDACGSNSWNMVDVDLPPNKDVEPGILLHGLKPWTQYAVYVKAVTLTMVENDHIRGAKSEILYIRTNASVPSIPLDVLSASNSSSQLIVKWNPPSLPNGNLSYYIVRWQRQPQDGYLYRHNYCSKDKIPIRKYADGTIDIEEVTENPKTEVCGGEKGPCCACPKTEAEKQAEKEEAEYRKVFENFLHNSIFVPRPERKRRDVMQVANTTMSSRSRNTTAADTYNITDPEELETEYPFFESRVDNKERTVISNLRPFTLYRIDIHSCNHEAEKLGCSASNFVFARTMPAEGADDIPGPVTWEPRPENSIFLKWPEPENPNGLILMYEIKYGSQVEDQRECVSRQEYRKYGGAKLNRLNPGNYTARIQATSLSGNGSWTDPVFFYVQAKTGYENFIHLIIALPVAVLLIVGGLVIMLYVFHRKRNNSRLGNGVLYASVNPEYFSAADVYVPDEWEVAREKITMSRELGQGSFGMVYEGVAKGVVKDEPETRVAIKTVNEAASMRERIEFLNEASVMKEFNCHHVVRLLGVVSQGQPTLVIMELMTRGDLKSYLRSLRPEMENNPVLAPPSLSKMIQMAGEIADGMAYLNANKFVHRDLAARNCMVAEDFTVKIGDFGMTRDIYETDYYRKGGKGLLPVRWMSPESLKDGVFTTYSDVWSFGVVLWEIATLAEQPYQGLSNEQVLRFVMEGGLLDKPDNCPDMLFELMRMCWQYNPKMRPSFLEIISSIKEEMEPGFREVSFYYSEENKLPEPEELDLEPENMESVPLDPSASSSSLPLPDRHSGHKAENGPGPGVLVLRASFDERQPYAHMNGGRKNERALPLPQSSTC
Sequence of CDK5/p35(h) (Q00535 whole entry): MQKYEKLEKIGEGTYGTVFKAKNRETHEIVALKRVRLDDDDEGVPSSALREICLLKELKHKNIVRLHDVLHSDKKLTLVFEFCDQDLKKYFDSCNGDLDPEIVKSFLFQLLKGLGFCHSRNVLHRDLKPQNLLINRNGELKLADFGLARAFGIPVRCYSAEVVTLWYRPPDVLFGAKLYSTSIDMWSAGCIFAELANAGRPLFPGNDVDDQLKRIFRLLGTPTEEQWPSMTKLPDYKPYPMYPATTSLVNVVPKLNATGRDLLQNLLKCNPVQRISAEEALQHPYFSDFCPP
Sequence of CDK5/p35(h) (Q15078 whole entry partner): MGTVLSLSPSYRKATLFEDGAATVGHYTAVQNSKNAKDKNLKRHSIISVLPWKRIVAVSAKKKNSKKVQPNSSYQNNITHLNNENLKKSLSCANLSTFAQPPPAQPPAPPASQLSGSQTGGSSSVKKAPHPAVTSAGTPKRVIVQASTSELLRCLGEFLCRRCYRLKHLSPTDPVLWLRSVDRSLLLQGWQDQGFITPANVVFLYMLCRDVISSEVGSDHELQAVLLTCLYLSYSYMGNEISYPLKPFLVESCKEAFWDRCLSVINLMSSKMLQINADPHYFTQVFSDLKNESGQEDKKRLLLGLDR
Sequence of NEK2(h) (P51955 whole entry): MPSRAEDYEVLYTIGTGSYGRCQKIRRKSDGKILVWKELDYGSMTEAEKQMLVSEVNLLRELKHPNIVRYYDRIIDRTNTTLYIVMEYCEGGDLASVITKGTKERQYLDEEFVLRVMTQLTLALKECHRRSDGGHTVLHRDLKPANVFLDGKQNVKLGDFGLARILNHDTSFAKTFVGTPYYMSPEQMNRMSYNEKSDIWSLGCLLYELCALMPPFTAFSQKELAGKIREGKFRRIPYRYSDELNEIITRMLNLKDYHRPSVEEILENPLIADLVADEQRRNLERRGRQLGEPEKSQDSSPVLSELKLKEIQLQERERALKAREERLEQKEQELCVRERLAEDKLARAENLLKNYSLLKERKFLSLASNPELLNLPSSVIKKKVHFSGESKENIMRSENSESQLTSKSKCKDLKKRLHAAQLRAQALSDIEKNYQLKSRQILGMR
T2 sequence (P09581 20-977): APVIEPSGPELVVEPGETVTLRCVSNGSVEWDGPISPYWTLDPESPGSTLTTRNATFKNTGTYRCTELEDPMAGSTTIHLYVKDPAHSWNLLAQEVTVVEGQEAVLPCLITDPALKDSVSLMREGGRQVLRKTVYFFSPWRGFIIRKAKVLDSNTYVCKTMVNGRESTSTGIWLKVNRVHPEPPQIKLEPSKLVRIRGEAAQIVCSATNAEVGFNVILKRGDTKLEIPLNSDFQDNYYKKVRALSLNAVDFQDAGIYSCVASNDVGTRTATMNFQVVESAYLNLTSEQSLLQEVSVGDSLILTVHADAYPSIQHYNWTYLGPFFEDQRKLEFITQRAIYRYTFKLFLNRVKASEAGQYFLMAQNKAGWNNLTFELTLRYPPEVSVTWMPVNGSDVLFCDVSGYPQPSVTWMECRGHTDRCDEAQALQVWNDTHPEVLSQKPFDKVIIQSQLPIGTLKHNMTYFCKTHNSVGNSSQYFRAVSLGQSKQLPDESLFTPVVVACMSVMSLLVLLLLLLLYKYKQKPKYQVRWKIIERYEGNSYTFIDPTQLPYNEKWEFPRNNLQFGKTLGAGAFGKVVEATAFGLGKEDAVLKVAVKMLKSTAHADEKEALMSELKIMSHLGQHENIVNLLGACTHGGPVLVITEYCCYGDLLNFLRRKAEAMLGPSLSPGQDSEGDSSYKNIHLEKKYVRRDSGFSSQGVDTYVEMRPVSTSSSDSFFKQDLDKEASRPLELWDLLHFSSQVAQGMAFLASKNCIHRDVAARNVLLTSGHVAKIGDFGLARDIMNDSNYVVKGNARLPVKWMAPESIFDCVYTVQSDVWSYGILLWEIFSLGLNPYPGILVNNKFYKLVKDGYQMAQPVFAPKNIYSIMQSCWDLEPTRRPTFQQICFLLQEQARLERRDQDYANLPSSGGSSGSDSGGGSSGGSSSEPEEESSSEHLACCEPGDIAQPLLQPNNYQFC

O=C(Nc1cc(Nc2ncccc2-c2ncnc3[nH]cnc23)ccc1F)c1cc(C(F)(F)F)cc(C(F)(F)F)c1 [SJ-C1044, N-(5-(3-(9H-purin-6-yl)pyridin-2-ylamino)-2-fluorophenyl)-3,5-bis(trifluoromethyl)benzamide]
inhibition at 10 µM (CDK6/cyclinD3(h)): -5% | 2-week repeated oral toxicity ([1]; 250 mg/kg oral): no toxicity | 2-week repeated oral toxicity ([1]; 500 mg/kg oral): decreased body weight | sustained plasma concentration (Pharmacokinetic study; for 16 h per day, 40 mg/kg once daily, 40 mg/kg): ≥ 8000 ng/mL and ≥ 14 μM | AUC(0-t) (Pharmacokinetic study; [4]): 97.8 µg·h/mL | Cmax (Pharmacokinetic study; [4]): 11400 ng/mL | Tmax (Pharmacokinetic study; [4]): 1.6 h | AUC(0-t) (Pharmacokinetic study; [5]): 228 µg·h/mL | Cmax (Pharmacokinetic study; [5]): 14900 ng/mL | Tmax (Pharmacokinetic study; [5]): 4.3 h | bioavailability (Pharmacokinetic study; [5]): 23% | ligand-dependent phosphorylation of TIE2 (TIE2): significant inhibitory effects | ligand-dependent phosphorylation of CSF1R (CSF1R): significant inhibitory effects | inhibition at 10 µM (PKCβII(h)): 10% | inhibition at 10 µM (BRAF): 68% | GI50 (HT29 (BRAF V600E)): 247 nM | inhibition at 10 µM (IGF-1R(h)): -24% | single oral dose toxicity [2]: no respiratory effects or signs of toxicity | inhibition at 10 µM (CDK5/p35(h)): -19% | inhibition at 10 µM (NEK2(h)): -4% | AKT phosphorylation (AKT phosphorylation): no detectable difference | paradoxical activation of MEK and ERK ([3]; KRAS-mutated colorectal cancer cells): without any evidence of paradoxical activation | MEK and ERK phosphorylation ([3]; LS513, 1 h treatment): inhibited MEK and ERK phosphorylation potently

— paper PMC10378394 (Current Issues in Molecular Biology, 2023)
